In paper PMC11310081, “Deep-learning-enabled antibiotic discovery through molecular de-extinction” (Nature Biomedical Engineering, 2024):
Entries after “also recorded” stand apart in the source; their conditions may differ. Peptide text beside a SMILES is read from it.

Key:
HEK293T cells = settings: 24 h
How it was run: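 5,000 cells/well seeded a day ahead in DMEM with 10% FBS, then treated with peptides; viability by MTT (0.5 mg/ml, 4 h, 37 °C), formazan in acidic isopropanol read at 570 nm. Concentration causing 50% lysis from non-linear regression; three biological replicates, two technical each.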

A. baumannii ATCC 19606 [1] = assay: Skin abscess infection mouse model; format: in vivo, CD-1 mice; settings: for bacterial count, skin abscess (Panel 6b): CD-1 mice; for Anti-infective activity in skin abscess model, in words: single dose at MIC, compared with untreated control and polymyxin B, n = 6
Description: A. baumannii ATCC 19606 cells were grown in LB medium to an OD600 = 0.5. Cells were washed twice with sterile phosphate-buffered saline (PBS) (pH 7.4, 13,000 r.p.m. for 2 min) and resuspended to a final concentration of 10^6 (A. baumannii cells) colony-forming units per millilitre (c.f.u. ml^−1). Six-week-old female CD-1 mice from Charles River (stock number 18679700-022) were anaesthetized with isoflurane, and their backs were sterilized and shaved. A superficial linear skin abrasion was made with a needle to damage the stratum corneum and upper layer of the epidermis. An aliquot of 20 μl containing the bacterial load resuspended in PBS was inoculated over the scratched area. Two hours after the infection, peptides diluted in water at their MIC value were administered to the infected area, and the untreated mice were inoculated with the same volume of deionized water. Mice were euthanized, and the area of scarified skin was excised 2 days and 4 days post infection, homogenized using a bead beater for 20 min (25 Hz) and then serially diluted tenfold for quantification of colony-forming units. This quantitative method was used as it has been established to accurately reflect the number of bacteria present in a given infected area. MacConkey agar plates were used as A. baumannii colonies appear purple in this medium and can easily be distinguished from other strains. The experiments were performed with six mice per group. All experiments were performed blindly, and no animal subjects were excluded from the analysis. The skin abscess infection mouse model was approved by the University Laboratory Animal Resources from the University of Pennsylvania (protocol 806763). Statistical significance was determined using one-way analysis of variance (ANOVA) followed by Dunnett’s test in log10-transformed data to mitigate the effect of outliers; P values are presented for each group, with all groups being compared to the untreated control group.

A. baumannii ATCC 19606 [2] = assay: Neutropenic thigh infection mouse model; format: in vivo, CD-1 mice; settings: neutropenic CD-1 mice
Description: Six-week-old female CD-1 mice from Charles River (stock number 18679700-022) were rendered neutropenic by two doses of cyclophosphamide (150 mg kg^−1) applied intraperitoneally with an interval of 72 h. One day after the last dose of cyclophosphamide, the mice were injected intramuscularly in their right thigh with a bacterial load of 10^6 c.f.u. ml^−1 of A. baumannii ATCC 19606 cells. The bacteria had been grown in LB broth, washed twice with PBS (pH 7.4), and resuspended to the desired concentration. Two hours after bacterial injection, peptides resuspended in water were administered intraperitoneally, and the untreated mice were inoculated with the same volume of deionized water. Before each injection, mice were anaesthetized with isoflurane and monitored for respiratory rate and pedal reflexes. Next, we monitored the establishment of the infection and euthanized the mice. The infected area was excised 2 days and 4 days post infection, homogenized using a bead beater for 20 min (25 Hz), and then serially diluted tenfold for quantification of colony-forming units in MacConkey agar plates. The experiments were performed with six mice per group. All experiments were performed blindly, and no animal subjects were excluded from the analysis. The thigh infection mouse model was approved by the University Laboratory Animal Resources from the University of Pennsylvania (protocol 807055). Statistical significance was determined using one-way ANOVA followed by Dunnett’s test in log10-transformed data to mitigate the effect of outliers; P values are presented for each group, with all groups being compared to the untreated control group.

[3] = A. baumannii ATCC 19606, day 2, replicate 1
[4] = A. baumannii ATCC 19606, day 2, replicate 2
[5] = A. baumannii ATCC 19606, day 2, replicate 3
[6] = A. baumannii ATCC 19606, day 2, replicate 4
[7] = A. baumannii ATCC 19606, day 2, replicate 5
[8] = A. baumannii ATCC 19606, day 2, replicate 6
[9] = A. baumannii ATCC 19606, day 4, replicate 1
[10] = A. baumannii ATCC 19606, day 4, replicate 2
[11] = A. baumannii ATCC 19606, day 4, replicate 3
[12] = A. baumannii ATCC 19606, day 4, replicate 4
[13] = A. baumannii ATCC 19606, day 4, replicate 5
[14] = A. baumannii ATCC 19606, day 4, replicate 6

Row | Structure (SMILES) | CC50 (HEK293T cells) [µM] | bacterial count, skin abscess (Panel 6b) (A. baumannii ATCC 19606 [1]; [3]) | bacterial count, skin abscess (Panel 6b) (A. baumannii ATCC 19606 [1]; [4]) | bacterial count, skin abscess (Panel 6b) (A. baumannii ATCC 19606 [1]; [5]) | bacterial count, skin abscess (Panel 6b) (A. baumannii ATCC 19606 [1]; [6]) | bacterial count, skin abscess (Panel 6b) (A. baumannii ATCC 19606 [1]; [7]) | bacterial count, skin abscess (Panel 6b) (A. baumannii ATCC 19606 [1]; [8]) | bacterial count, skin abscess (Panel 6b) (A. baumannii ATCC 19606 [1]; [9]) | bacterial count, skin abscess (Panel 6b) (A. baumannii ATCC 19606 [1]; [10]) | bacterial count, skin abscess (Panel 6b) (A. baumannii ATCC 19606 [1]; [11]) | bacterial count, skin abscess (Panel 6b) (A. baumannii ATCC 19606 [1]; [12]) | bacterial count, skin abscess (Panel 6b) (A. baumannii ATCC 19606 [1]; [13]) | bacterial count, skin abscess (Panel 6b) (A. baumannii ATCC 19606 [1]; [14]) | Anti-infective activity in skin abscess model, in words (A. baumannii ATCC 19606 [1]) | bacterial count, thigh infection (Panel 6d) (A. baumannii ATCC 19606 [2]; [3]) | bacterial count, thigh infection (Panel 6d) (A. baumannii ATCC 19606 [2]; [4]) | bacterial count, thigh infection (Panel 6d) (A. baumannii ATCC 19606 [2]; [5]) | bacterial count, thigh infection (Panel 6d) (A. baumannii ATCC 19606 [2]; [6]) | bacterial count, thigh infection (Panel 6d) (A. baumannii ATCC 19606 [2]; [7]) | bacterial count, thigh infection (Panel 6d) (A. baumannii ATCC 19606 [2]; [8]) | further results
1 | CC[C@H](C)[C@H](N)C(=O)N[C@@H](Cc1ccccc1)C(=O)N[C@@H](CC(C)C)C(=O)N[C@@H](Cc1c[nH]cn1)C(=O)N[C@@H](CC(C)C)C(=O)N[C@@H](CCCCN)C(=O)N[C@H](C(=O)N[C@@H](CC(C)C)C(=O)N[C@@H](CCCCN)C(=O)N[C@H](C(=O)N[C@H](C(=O)N[C@@H](CCCNC(=N)N)C(=O)N[C@@H](CC(C)C)C(=O)N[C@@H](CC(C)C)C(=O)O)[C@@H](C)CC)[C@@H](C)CC)[C@@H](C)CC [Elephasin-2] (H-IFLHLKILKIIRLL-OH; N-terminus and C-terminus assumed) | > 128 | 200000 | 200000 | 8000000 | 4000000 | 200000 | 400000 | 40000 | 20000 | 800000 | 800000 | 200 | 200 | comparable to that of the widely used antibiotic polymyxin B; also recorded: inhibited the proliferation of the infection for up to 4 days after treatment; also recorded: cleared the infection in some of the mice | 2e+007 | 4e+007 | 4e+007 | 4e+007 | 8e+007 | 1e+008 | bacterial count, thigh infection (Panel 6d) (A. baumannii ATCC 19606 [2]; [9]): 1400000; bacterial count, thigh infection (Panel 6d) (A. baumannii ATCC 19606 [2]; [10]): 1000000; bacterial count, thigh infection (Panel 6d) (A. baumannii ATCC 19606 [2]; [11]): 4000000; bacterial count, thigh infection (Panel 6d) (A. baumannii ATCC 19606 [2]; [12]): 1000000; bacterial count, thigh infection (Panel 6d) (A. baumannii ATCC 19606 [2]; [13]): 800000; bacterial count, thigh infection (Panel 6d) (A. baumannii ATCC 19606 [2]; [14]): 4000000
2 | CC[C@H](C)[C@H](NC(=O)[C@H](CO)NC(=O)[C@H](CCCNC(=N)N)NC(=O)[C@H](C)NC(=O)[C@H](Cc1c[nH]cn1)NC(=O)[C@H](CC(C)C)NC(=O)[C@H](CS)NC(=O)[C@H](C)NC(=O)[C@@H](N)CCCNC(=N)N)C(=O)N[C@@H](C)C(=O)N[C@@H](CCCNC(=N)N)C(=O)N[C@@H](CC(C)C)C(=O)N[C@@H](Cc1c[nH]cn1)C(=O)N[C@@H](CCCCN)C(=O)N[C@@H](CCCNC(=N)N)C(=O)N[C@@H](Cc1c[nH]c2ccccc12)C(=O)N[C@@H](CCCNC(=N)N)C(=O)N1CCC[C@H]1C(=O)N[C@H](C(=O)N[C@@H](Cc1c[nH]cn1)C(=O)N[C@@H](CCC(N)=O)C(=O)NCC(=O)N[C@@H](CC(C)C)C(=O)NCC(=O)N[C@@H](CC(C)C)C(=O)N[C@@H](CCCCN)C(=O)O)C(C)C [Mammuthusin-2] (H-RACLHARSIARLHKRWRPVHQGLGLK-OH; N-terminus and C-terminus assumed) | > 128 | 600000 | 400000 | 800000 | 200000 | 4000000 | 1e+007 | 200000 | 200000 | 800000 | 1200000 | 20000 | 20000 | inhibited the proliferation of the infection for up to 4 days after treatment | 800000 | 2e+007 | 4000000 | 2000000 | 1e+007 | 4000000 | TI (therapeutic index) (HEK293T cells): > 4; bacterial count, thigh infection (Panel 6d) (A. baumannii ATCC 19606 [2]; [9]): 800000; bacterial count, thigh infection (Panel 6d) (A. baumannii ATCC 19606 [2]; [10]): 600000; bacterial count, thigh infection (Panel 6d) (A. baumannii ATCC 19606 [2]; [11]): 6000000; bacterial count, thigh infection (Panel 6d) (A. baumannii ATCC 19606 [2]; [12]): 6000000; bacterial count, thigh infection (Panel 6d) (A. baumannii ATCC 19606 [2]; [13]): 2000000; bacterial count, thigh infection (Panel 6d) (A. baumannii ATCC 19606 [2]; [14]): 4000000
